Test results published in paper PMC5484532 (Biochimie, 2017).
pIC50: −log10 of the molar value.

Target: Leishmania donovani tyrosyl-tRNA synthetase (LdTyrRS) (Leishmania donovani, UniProt A0A3Q8ID88)
Assay: X-ray co-crystal structure at […] Å
Type: biochemical

Nc1ncnc2c1ncn2[C@@H]1O[C@H](COS(=O)(=O)NC(=O)[C@@H](N)Cc2ccc(O)cc2)[C@@H](O)[C@H]1O [TyrSA, 5'-O-[N-(L-tyrosyl)sulfamoyl]adenosine]
pIC50: 9.16
